Here are results for 24 compounds from patent US12637461B2, “Compounds for the activation of AMPK” (PFIZER INC., priority 2022, dated 2026).

The structures appear in SMILES notation. Some results are limits rather than exact numbers.

This test addresses T1, human AMPK α2β2γ3 (Homo sapiens, UniProt O43741+P54646+Q9UGI9).
T1 construct: expressed in transfected cells; host or cells: HEK293AD cells, MaxCyte bulk electroporation
The experiment in a line: Primary cellular assay: γ3 associated phospho-Thr172 AMPK detection (custom pAMPK Surefire AlphaLISA) in α2β2γ3 bulk transiently transfected HEK293 cells. It is filed as cell-based. The settings on record: activation of human AMPK α2β2γ3 (γ3 pThr172 AMPK signal) in transiently transfected HEK293 cells, 20 minutes compound incubation; for Emax: 20 min, read-out: Assay GMean Asy. Max (%); for Emax / Assay GMean Asy. Max (%): geometric mean of the asymptotic max; for EC50: geometric mean EC50, read-out: Assay GMean EC50. An outline of the steps:
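Transiently co-transfected (α2/β2/γ3 plasmids, electroporation) HEK293AD cells, plated 2 days in low-glucose DMEM+10% FBS, treated 20 min with compounds (11-point half-log dilutions). Lysates read by modified AlphaLISA capturing γ3 with pThr172 antibody detection. % effect relative to 30 μM HPE and DMSO; EC50 and Emax from curve fit.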

What is called EC50 is the midpoint of the concentration-response curve.

T1 sequence (P54646 whole entry): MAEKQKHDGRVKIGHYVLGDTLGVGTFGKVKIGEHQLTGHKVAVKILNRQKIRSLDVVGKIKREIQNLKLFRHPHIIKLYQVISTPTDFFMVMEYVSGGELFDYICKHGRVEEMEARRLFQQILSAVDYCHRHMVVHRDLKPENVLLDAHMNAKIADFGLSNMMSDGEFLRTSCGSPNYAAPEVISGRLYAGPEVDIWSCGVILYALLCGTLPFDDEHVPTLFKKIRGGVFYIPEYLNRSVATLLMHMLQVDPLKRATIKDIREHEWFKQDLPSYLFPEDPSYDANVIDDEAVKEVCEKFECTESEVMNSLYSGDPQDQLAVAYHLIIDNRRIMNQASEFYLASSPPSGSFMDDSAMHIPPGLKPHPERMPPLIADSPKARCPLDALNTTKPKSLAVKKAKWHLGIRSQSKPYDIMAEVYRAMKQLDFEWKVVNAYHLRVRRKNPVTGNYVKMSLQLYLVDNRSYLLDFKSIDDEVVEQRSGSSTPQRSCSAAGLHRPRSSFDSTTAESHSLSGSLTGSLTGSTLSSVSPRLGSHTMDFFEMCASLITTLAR
T1 sequence (O43741 whole entry): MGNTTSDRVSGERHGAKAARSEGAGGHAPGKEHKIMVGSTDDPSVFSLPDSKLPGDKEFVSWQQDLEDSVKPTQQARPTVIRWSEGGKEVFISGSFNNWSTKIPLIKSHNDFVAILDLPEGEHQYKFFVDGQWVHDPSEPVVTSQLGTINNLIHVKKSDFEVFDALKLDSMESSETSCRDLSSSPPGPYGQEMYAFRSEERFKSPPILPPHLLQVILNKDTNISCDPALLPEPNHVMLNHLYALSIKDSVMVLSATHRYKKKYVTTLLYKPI
T1 sequence (Q9UGI9 whole entry): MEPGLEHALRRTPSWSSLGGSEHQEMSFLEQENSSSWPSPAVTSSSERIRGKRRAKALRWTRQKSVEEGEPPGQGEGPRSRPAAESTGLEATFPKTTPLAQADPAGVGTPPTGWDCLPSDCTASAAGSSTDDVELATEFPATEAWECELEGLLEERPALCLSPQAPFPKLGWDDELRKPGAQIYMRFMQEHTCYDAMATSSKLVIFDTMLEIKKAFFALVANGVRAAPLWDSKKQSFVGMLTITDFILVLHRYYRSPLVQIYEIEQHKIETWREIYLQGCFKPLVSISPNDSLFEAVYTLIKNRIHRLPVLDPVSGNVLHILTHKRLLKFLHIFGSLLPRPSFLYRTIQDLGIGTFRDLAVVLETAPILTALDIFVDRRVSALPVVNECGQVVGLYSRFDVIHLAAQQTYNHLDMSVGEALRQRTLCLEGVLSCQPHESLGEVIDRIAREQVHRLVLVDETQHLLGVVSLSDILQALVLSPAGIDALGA

Regarding `Cn1cc(F)c(N2C[C@](C)(c3cccc(Cl)c3F)c3c(cnc(NC4CN(C(=O)[C@@H]5C[C@H]5F)C4)c3F)C2=O)n1` [compound 78, (4R)-4-(3-chloro-2-fluorophenyl)-5-fluoro-6-({1-[(1S,2R)-2-fluorocyclopropane-1-carbonyl]azetidin-3-yl}amino)-2-(4-fluoro-1-methyl-1H-pyrazol-3-yl)-4-methyl-3,4-dihydro-2,7-naphthyridin-1(2H)-one], the Emax stood at 80.7% and the EC50 came out at 62.3 nM.

Take `Cn1cc(F)c(N2CC(C)(c3ccc(F)c(Cl)c3F)c3c(cnc(NC4CN(C(=O)C(C)(C)O)C4)c3F)C2=O)n1` (stereo not drawn) [compound 101, 4-(3-chloro-2,4-difluorophenyl)-5-fluoro-2-(4-fluoro-1-methyl-1H-pyrazol-3-yl)-6-{[1-(2-hydroxy-2-methylpropanoyl)azetidin-3-yl]amino}-4-methyl-3,4-dihydro-2,7-naphthyridin-1(2H)-one, from P3 (ENANT-2)]: the Emax came out at 108% and the EC50 is 135 nM.

With `C[C@]1(c2cccc(Cl)c2F)CN(c2cc(F)c(CN)cc2F)C(=O)c2cnc(NC3CN(C(=O)[C@@H]4C[C@@H]4F)C3)c(F)c21` [Example 14, (4R)-2-[4-(aminomethyl)-2,5-difluorophenyl]-4-(3-chloro-2-fluorophenyl)-5-fluoro-6-({1-[(1S,2S)-2-fluorocyclopropane-1-carbonyl]azetidin-3-yl}amino)-4-methyl-3,4-dihydro-2,7-naphthyridin-1(2H)-one], the Emax is 69.4% and the EC50 came to 33.7 nM.

In the case of `Cn1cc(F)c(N2C[C@](C)(c3cccc(Cl)c3F)c3c(cnc(NC4CN(C(=O)CC(F)(F)F)C4)c3F)C2=O)n1` [compound 63, (4R)-4-(3-chloro-2-fluorophenyl)-5-fluoro-2-(4-fluoro-1-methyl-1H-pyrazol-3-yl)-4-methyl-6-{[1-(3,3,3-trifluoropropanoyl)azetidin-3-yl]amino}-3,4-dihydro-2,7-naphthyridin-1(2H)-one], the Emax is 90% and the EC50 amounted to 55.1 nM.

Consider `Cn1cc(F)c(N2C[C@](C)(c3cccc(Cl)c3F)c3c(cnc(NC4CN(C(=O)C(O)C5CC5)C4)c3F)C2=O)n1` (single isomer, unassigned) [compound 42], for which the Emax was determined as 76.2% and the EC50 turned out to be 59.1 nM.

In the case of `CC(C)(CO)NC(=O)N1CC(Nc2ncc3c(n2)C(C)(c2cccc(Cl)c2F)CN(c2ncccc2F)C3=O)C1` (stereo not drawn) [compound 87, 3-{[8-(3-chloro-2-fluorophenyl)-6-(3-fluoropyridin-2-yl)-8-methyl-5-oxo-5,6,7,8-tetrahydropyrido[4,3-d]pyrimidin-2-yl]amino}-N-(1-hydroxy-2-methylpropan-2-yl)azetidine-1-carboxamide, from P13 (ENANT-2)], the Emax came out at 175% and the EC50 came out at 152 nM.

As for `CC1(c2cccc(Cl)c2F)CN(c2ncccc2F)C(=O)c2cnc(NC3CN(C(=O)N4CC5CC4C5)C3)nc21` (stereo not drawn) [compound 89, 2-{[1-(2-azabicyclo[2.1.1]hexane-2-carbonyl)azetidin-3-yl]amino}-8-(3-chloro-2-fluorophenyl)-6-(3-fluoropyridin-2-yl)-8-methyl-7,8-dihydropyrido[4,3-d]pyrimidin-5(6H)-one,from P13 (ENANT-2)], the Emax came out at 148% and the EC50 was found to be 152 nM.

`CC1(c2cccc(Cl)c2F)CN(c2ncccc2F)C(=O)c2cnc(NC3CN(C(=O)N4C[C@H]5C[C@@H]4[C@@H](O)C5)C3)nc21` (single isomer, unassigned) [Example 32]: the Emax turned out to be 173% and the EC50 is 219 nM.

Turning to `CC1(c2cccc(Cl)c2F)CN(c2ccc(N)cn2)C(=O)c2cnc(NC3CN(C(=O)[C@@H]4C[C@@H]4F)C3)nc21` (single isomer, unassigned) [Example 31], the Emax was 110% and the EC50 stood at 221 nM.

As to `CC1(c2cccc(Cl)c2F)CN(c2ncccc2F)C(=O)c2cnc(NC3CN(C(=O)[C@@H]4C[C@@H]4F)C3)nc21` (single isomer, unassigned) [compound 81], the Emax was 123% and the EC50 is above 1060 nM.

With `C[C@]1(c2cccc(Cl)c2F)CN(c2ccccn2)C(=O)c2cnc(NC3CN(C(=O)[C@@H]4C[C@@H]4F)C3)c(F)c21` [Example 5, (4R)-4-(3-chloro-2-fluorophenyl)-5-fluoro-6-({1-[(1S,2S)-2-fluorocyclopropane-1-carbonyl]azetidin-3-yl}amino)-4-methyl-2-(pyridin-2-yl)-3,4-dihydro-2,7-naphthyridin-1(2H)-one], the Emax came to 64.9% and the EC50 worked out at 27.7 nM.

With `C[C@]1(c2cccc(Cl)c2F)CN(c2ccc([C@@H]3COCCN3)cn2)C(=O)c2cnc(NC3CN(C(=O)c4cccnn4)C3)c(F)c21` (single isomer, unassigned) [Example 17], the Emax is 120% and the EC50 is 144 nM.

Take `CN1CCC(C(=O)N2CC[C@@H](Nc3ncc4c(c3F)C(C)(c3cccc(Cl)c3F)CN(c3ncccc3F)C4=O)C2)CC1` (single isomer, unassigned) [Example 24]: the Emax came out at 139% and the EC50 was 79.5 nM.

Turning to `CC1(c2cccc(F)c2F)CN(c2ccccc2)C(=O)c2cnc(NC3CN(C(=O)CN4CCCC4)C3)nc21` (stereo not drawn) [Example 33, 8-(2,3-Difluorophenyl)-8-methyl-6-phenyl-2-({1-[(pyrrolidin-1-γ1)acetyl]azetidin-3-yl}amino)-7,8-dihydropyrido[4,3-d]pyrimidin-5(6H)-one], the Emax was 104% and the EC50 is 906 nM.

Regarding `Cn1cc(F)c(N2C[C@](C)(c3cccc(Cl)c3F)c3c(cnc(NC4CN(C(=O)C(O)C5CC5)C4)c3F)C2=O)n1` (single isomer, unassigned) [compound 43], the EC50 worked out at 172 nM and the “Assay GMean Asy. Max (%)” value is 77.4%.

For `C[C@@H](O)C(=O)N1CC(Nc2ncc3c(c2F)[C@@](C)(c2cccc(Cl)c2F)CN(c2nn(C)cc2F)C3=O)C1` [compound 40, (4R)-4-(3-chloro-2-fluorophenyl)-5-fluoro-2-(4-fluoro-1-methyl-1H-pyrazol-3-yl)-6-({1-[(2R)-2-hydroxypropanoyl]azetidin-3-yl}amino)-4-methyl-3,4-dihydro-2,7-naphthyridin-1(2H)-one], the Emax is 58.8% and the EC50 was determined as 113 nM.

On to `CN(C)CC(=O)N1CC(Nc2ncc3c(c2F)[C@@](C)(c2cccc(Cl)c2F)CN(c2nn(C)cc2F)C3=O)C1` [compound 41, (4R)-4-(3-chloro-2-fluorophenyl)-6-({1-[(dimethylamino)acetyl]azetidin-3-yl}amino)-5-fluoro-2-(4-fluoro-1-methyl-1H-pyrazol-3-yl)-4-methyl-3,4-dihydro-2,7-naphthyridin-1(2H)-one], for which the Emax stood at 80.2% and the EC50 stood at 120 nM.

Turning to `Cn1cc(F)c(N2CC(C)(c3cccc(Cl)c3F)c3c(ccc(NC4CN(CC(=O)N5CCC5)C4)c3F)C2=O)n1` (stereo not drawn) [compound 92, 6-({1-[2-(azetidin-1-yl)-2-oxoethyl]azetidin-3-yl}amino)-4-(3-chloro-2-fluorophenyl)-5-fluoro-2-(4-fluoro-1-methyl-1H-pyrazol-3-yl)-4-methyl-3,4-dihydroisoquinolin-1(2H)-one, from P18 (ENANT-2)], the 50% effective concentration (EC50) amounted to 58.9 nM and the “Assay GMean Asy. Max (%)” value amounted to 109%.

As to `Cn1cc(F)c(N2C[C@](C)(c3cccc(Cl)c3F)c3c(cnc(NC4CN(C(=O)C(C)(O)C5CC5)C4)c3F)C2=O)n1` (single isomer, unassigned) [Example 9], the EC50 was above 55.7 nM and the “Assay GMean Asy. Max (%)” value was 118.8%.

Take `Cn1cc(F)c(N2C[C@](C)(c3cccc(Cl)c3F)c3c(cnc(NC4CN(C(=O)C5(O)CCC5)C4)c3F)C2=O)n1` [Example 7, (4R)-4-(3-Chloro-2-fluorophenyl)-5-fluoro-2-(4-fluoro-1-methyl-1H-pyrazol-3-yl)-6-{[1-(1-hydroxycyclobutane-1-carbonyl)azetidin-3-yl]amino}-4-methyl-3,4-dihydro-2,7-naphthyridin-1(2H)-one]: the Emax amounted to 123% and the EC50 was 144 nM.

Turning to `Cc1c(F)ccc(C2(C)CN(c3ccc(N)cn3)C(=O)c3cnc(NC4CN(C(=O)[C@@H]5C[C@@H]5F)C4)c(F)c32)c1F` (single isomer, unassigned) [compound 104], the Emax was 49.8% and the EC50 worked out at 32.1 nM.

`C[C@]1(c2cccc(Cl)c2F)CN(c2ccccc2F)C(=O)c2cnc(NC3CN(C(=O)[C@@H]4C[C@@H]4F)C3)c(F)c21` [compound 56, (4R)-4-(3-chloro-2-fluorophenyl)-5-fluoro-6-({1-[(1S,2S)-2-fluorocyclopropane-1-carbonyl]azetidin-3-yl}amino)-2-(2-fluorophenyl)-4-methyl-3,4-dihydro-2,7-naphthyridin-1(2H)-one]: the Emax was 92.9% and the EC50 came out at 256 nM.

Turning to `Cn1cc(F)c(N2C[C@](C)(c3cccc(Cl)c3F)c3c(cnc(NC4CN(C(=O)CN5CCCC5)C4)c3F)C2=O)n1` [Example 12, (4R)-4-(3-Chloro-2-fluorophenyl)-5-fluoro-2-(4-fluoro-1-methyl-1H-pyrazol-3-yl)-4-methyl-6-({1-[(pyrrolidin-1-γ1)acetyl]azetidin-3-yl}amino)-3,4-dihydro-2,7-naphthyridin-1(2H)-one], the Emax came to 77.9% and the EC50 was 43.5 nM.

In the case of `CC1(c2cccc(Cl)c2F)CN(c2ncccc2F)C(=O)c2cnc(NC3CN(C(=O)N4CCC[C@@H]4CO)C3)nc21` (single isomer, unassigned) [compound 86], the Emax worked out at 106% and the EC50 turned out to be 34.6 nM.
